Results: paper PMC12136037, “Type II kinase inhibitors that target Parkinson’s disease–associated LRRK2” (Science Advances, 2025)

What was measured:
Assay in all cases: DSF 100 kinase selectivity screen;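 note: compound tested at 20 µM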
Assay type in all cases: binding
[1] = molecular target: T1, ~100 representative kinases (Homo sapiens, UniProt P12931); settings: Protein SRC; DSF; average of three replicates
T1 construct: Recombinant protein kinase domains with a concentration of 2 μM
Method in brief: (§1)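 Each kinase domain, at 2 μM, is mixed with 20 μM test compound and SYPRO Orange in Hepes (20 mM, pH 7.5) with 500 mM NaCl. Temperature is then raised at 3°C/min and fluorescence-monitored unfolding yields the melting temperature change, ΔTm in degrees Celsius.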

[2] = molecular target: T2, ~100 representative kinases (Homo sapiens, UniProt P15735); settings: protein PHKG2; average of three replicates
T2 construct: Recombinant protein kinase domains with a concentration of 2 μM
T2 sequence (P15735 1-406): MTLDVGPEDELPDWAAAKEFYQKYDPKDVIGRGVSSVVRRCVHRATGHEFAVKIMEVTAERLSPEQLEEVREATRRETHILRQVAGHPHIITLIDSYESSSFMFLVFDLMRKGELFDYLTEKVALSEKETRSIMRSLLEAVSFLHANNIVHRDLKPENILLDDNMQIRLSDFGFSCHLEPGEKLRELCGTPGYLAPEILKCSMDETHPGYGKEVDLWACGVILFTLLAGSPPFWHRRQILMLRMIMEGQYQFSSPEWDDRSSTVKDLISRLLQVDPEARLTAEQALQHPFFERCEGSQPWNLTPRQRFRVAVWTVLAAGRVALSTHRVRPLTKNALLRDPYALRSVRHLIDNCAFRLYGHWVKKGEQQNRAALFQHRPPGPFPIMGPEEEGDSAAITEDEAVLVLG
Method in brief: as §1

[3] = molecular target: T3, ~100 representative kinases (Homo sapiens, UniProt P45985); settings: protein MAP2K4; average of three replicates
T3 construct: Recombinant protein kinase domains with a concentration of 2 μM
T3 sequence (P45985 1-399): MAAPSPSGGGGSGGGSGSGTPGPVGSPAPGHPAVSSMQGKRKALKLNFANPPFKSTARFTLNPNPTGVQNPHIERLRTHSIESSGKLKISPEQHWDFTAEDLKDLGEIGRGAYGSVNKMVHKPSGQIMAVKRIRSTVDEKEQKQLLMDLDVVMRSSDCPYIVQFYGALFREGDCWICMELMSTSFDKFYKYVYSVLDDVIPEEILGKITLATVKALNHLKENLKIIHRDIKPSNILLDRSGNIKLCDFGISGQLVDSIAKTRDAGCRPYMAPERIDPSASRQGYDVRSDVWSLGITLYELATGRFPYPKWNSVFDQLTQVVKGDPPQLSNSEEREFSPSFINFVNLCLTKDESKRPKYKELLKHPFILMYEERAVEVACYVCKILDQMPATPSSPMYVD
Method in brief: as §1

[4] = molecular target: T4, ~100 representative kinases (Homo sapiens, UniProt Q92630); settings: Protein DYRK2; average of three replicates
T4 construct: Recombinant protein kinase domains with a concentration of 2 μM
T4 sequence (Q92630 1-601): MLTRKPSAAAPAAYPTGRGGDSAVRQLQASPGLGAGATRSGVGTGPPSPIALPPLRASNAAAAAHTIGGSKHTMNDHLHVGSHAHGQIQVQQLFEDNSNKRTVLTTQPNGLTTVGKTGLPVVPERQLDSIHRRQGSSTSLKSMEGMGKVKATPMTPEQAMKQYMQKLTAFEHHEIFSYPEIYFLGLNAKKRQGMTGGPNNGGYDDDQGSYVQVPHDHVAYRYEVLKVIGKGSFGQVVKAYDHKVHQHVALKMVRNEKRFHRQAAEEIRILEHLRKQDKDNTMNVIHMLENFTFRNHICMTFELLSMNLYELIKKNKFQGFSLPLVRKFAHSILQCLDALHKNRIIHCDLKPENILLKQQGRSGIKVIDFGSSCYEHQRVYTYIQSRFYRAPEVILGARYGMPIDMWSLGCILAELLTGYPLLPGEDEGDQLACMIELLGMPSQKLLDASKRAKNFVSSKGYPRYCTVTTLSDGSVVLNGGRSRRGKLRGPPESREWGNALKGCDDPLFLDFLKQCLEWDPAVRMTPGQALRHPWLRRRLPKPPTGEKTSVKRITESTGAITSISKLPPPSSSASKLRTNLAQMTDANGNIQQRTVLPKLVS
Method in brief: as §1

[5] = molecular target: T5, ~100 representative kinases (Homo sapiens, UniProt O14733); settings: protein MAP2K7; average of three replicates
T5 construct: Recombinant protein kinase domains with a concentration of 2 μM
T5 sequence (O14733 1-419): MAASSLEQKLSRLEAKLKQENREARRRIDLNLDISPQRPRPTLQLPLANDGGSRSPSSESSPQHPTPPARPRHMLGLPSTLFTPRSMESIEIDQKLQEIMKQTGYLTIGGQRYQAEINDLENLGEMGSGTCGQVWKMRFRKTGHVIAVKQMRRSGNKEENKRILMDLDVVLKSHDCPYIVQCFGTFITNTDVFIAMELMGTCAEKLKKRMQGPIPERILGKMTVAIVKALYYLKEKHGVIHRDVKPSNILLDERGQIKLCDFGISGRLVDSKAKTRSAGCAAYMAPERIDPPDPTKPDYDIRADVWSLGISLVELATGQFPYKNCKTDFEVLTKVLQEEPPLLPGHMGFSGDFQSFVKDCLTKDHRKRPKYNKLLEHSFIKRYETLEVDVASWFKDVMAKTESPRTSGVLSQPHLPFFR
Method in brief: as §1

[6] = molecular target: T6, ~100 representative kinases (Homo sapiens, UniProt Q00532); settings: Protein CDKL1; average of three replicates
T6 construct: Recombinant protein kinase domains with a concentration of 2 μM
T6 sequence (Q00532 whole entry, the tested form may be a part): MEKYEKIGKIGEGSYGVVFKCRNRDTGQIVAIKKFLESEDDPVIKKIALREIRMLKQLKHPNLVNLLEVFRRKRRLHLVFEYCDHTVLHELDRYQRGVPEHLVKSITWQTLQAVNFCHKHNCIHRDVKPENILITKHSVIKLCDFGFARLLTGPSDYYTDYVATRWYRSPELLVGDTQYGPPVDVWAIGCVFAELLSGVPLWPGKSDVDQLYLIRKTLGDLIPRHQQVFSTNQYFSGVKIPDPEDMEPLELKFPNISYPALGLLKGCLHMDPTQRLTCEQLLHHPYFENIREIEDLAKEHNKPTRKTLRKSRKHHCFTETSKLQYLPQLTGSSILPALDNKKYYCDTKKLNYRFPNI
Method in brief: as §1

[7] = molecular target: T7, ~100 representative kinases (Homo sapiens, UniProt Q5VT25); settings: Protein CDC42BPA; average of three replicates
T7 construct: Recombinant protein kinase domains with a concentration of 2 μM
Method in brief: as §1

[8] = molecular target: T8, ~100 representative kinases (Homo sapiens, UniProt Q13153); settings: protein PAK1; average of three replicates
T8 construct: Recombinant protein kinase domains with a concentration of 2 μM
T8 sequence (Q13153 whole entry, the tested form may be a part): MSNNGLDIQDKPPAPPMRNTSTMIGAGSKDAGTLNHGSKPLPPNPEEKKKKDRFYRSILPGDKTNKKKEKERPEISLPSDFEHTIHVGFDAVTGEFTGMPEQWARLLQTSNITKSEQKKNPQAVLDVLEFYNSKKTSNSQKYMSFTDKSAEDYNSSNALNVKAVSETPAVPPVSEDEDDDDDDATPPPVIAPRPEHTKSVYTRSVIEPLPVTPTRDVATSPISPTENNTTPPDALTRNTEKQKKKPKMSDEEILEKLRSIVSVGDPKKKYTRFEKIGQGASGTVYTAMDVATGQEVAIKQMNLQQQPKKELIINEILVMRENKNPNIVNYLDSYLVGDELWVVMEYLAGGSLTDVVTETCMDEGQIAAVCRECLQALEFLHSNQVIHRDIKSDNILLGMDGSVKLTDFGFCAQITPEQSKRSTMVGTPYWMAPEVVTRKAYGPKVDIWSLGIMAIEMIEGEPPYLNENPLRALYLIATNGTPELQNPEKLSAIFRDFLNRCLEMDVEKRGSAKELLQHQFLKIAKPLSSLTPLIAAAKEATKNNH
Method in brief: as §1

[9] = molecular target: T9, ~100 representative kinases (Homo sapiens, UniProt Q9H4A3); settings: Protein WNK1; DSF; average of three replicates
T9 construct: Recombinant protein kinase domains with a concentration of 2 μM
T9 sequence (Q9H4A3 whole entry, the tested form may be a part): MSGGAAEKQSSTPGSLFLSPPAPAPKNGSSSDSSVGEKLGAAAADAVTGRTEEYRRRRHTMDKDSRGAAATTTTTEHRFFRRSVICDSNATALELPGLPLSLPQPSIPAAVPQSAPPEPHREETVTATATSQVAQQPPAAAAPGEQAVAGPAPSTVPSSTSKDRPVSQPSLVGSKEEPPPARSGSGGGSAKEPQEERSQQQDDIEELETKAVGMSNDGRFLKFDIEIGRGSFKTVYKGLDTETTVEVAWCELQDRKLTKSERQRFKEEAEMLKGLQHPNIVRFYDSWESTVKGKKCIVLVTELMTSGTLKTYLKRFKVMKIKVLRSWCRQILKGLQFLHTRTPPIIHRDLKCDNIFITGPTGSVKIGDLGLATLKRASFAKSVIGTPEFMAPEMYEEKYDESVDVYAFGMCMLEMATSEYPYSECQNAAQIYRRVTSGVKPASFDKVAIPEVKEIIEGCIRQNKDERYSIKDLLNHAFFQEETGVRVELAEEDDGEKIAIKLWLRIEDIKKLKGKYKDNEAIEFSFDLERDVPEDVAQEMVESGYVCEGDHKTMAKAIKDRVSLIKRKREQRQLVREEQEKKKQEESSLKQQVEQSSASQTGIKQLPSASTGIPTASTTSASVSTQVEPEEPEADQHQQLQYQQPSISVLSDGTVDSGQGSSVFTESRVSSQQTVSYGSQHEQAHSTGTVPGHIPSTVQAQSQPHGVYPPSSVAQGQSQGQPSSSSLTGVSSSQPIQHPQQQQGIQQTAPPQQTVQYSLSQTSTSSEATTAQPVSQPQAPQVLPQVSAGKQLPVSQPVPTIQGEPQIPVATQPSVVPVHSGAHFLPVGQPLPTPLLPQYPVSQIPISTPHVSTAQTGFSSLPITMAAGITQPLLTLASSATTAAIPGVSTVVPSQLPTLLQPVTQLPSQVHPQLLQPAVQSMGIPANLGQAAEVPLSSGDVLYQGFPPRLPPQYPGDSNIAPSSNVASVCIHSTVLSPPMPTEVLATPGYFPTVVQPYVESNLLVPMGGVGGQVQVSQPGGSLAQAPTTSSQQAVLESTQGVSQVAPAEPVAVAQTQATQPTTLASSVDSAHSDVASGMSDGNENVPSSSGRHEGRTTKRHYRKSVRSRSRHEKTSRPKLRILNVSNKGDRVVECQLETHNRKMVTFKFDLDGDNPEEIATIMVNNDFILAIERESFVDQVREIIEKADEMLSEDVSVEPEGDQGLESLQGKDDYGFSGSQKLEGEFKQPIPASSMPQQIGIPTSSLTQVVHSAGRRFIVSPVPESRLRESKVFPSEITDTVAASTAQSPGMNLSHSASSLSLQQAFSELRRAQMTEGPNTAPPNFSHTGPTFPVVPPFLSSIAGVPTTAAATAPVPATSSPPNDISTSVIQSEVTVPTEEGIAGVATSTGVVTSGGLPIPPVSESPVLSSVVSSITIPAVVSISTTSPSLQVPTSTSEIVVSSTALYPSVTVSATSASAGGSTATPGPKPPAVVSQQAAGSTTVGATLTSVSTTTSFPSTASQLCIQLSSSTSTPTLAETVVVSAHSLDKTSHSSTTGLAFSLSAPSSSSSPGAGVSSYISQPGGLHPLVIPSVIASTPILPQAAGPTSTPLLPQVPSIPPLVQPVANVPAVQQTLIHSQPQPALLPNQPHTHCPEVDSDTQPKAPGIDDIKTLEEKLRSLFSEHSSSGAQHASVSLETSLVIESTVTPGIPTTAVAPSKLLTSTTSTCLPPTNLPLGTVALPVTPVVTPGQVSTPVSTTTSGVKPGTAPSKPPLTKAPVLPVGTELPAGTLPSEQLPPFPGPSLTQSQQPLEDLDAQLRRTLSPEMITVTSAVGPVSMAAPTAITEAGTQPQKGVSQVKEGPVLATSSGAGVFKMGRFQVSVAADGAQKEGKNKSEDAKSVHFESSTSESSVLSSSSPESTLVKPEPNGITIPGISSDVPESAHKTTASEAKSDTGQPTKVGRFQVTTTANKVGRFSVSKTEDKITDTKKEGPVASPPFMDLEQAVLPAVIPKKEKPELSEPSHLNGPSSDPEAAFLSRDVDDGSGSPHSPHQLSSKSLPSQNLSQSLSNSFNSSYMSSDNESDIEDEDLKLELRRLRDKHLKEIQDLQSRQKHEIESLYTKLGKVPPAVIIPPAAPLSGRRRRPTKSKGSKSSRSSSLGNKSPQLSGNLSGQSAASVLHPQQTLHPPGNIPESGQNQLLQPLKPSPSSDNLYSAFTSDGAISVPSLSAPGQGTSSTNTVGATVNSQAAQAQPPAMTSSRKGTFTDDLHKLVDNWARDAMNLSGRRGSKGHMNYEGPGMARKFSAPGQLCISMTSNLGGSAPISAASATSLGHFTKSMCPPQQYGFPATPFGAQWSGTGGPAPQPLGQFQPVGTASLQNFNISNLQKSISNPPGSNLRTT
Method in brief: as §1

T1 sequence (P12931 whole entry, the tested form may be a part): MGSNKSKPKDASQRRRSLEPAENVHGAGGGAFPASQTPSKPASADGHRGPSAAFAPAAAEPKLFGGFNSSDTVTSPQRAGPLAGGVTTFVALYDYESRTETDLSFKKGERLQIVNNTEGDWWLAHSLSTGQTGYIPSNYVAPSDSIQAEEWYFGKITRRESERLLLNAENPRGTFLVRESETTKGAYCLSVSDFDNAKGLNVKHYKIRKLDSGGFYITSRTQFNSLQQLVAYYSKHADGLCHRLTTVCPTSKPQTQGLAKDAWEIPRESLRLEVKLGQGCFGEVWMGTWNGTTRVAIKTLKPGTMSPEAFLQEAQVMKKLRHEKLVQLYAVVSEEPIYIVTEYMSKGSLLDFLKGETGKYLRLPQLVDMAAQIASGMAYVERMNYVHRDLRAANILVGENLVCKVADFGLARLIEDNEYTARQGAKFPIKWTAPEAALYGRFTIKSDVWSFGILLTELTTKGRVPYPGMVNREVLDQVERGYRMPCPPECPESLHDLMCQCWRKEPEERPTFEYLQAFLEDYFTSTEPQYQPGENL

Row | dTm [1] | dTm [2] | dTm [3] | dTm [4] | dTm [5] | dTm [6] | dTm [7] | dTm [8] | dTm [9] | SMILES
1 | 0.09 K | 3.65 K | 4.74 K | 1.57 K | -0.81 K | 0.44 K | -0.18 K | -0.88 K | 0.04 K | COc1cc(S(C)(=O)=O)ccc1Nc1nc(N(C)C)c2c(Cl)c[nH]c2n1 [Compound 37]
2 | -0.23 K | 0.58 K | 5.47 K | 2.68 K | 3.02 K | 1.69 K | -0.57 K | 0.67 K | 1.20 K | O=C(Nc1cccc(-c2c[nH]c3ncnc(N4CCOCC4)c23)c1)C1(C(=O)Nc2cc(Br)c(F)cc2F)CC1 [Compound 25]
3 | 1.27 K | 0.20 K | 6.40 K | 6.24 K | 5.76 K | 5.10 K | -0.81 K | 4.33 K | -0.00745 K | O=C(Nc1cccc(-c2c[nH]c3ncnc(N4CCOCC4)c23)c1)c1cccn(-c2ccc(F)cc2)c1=O [Compound 4]
4 | 0.20 K | 0.93 K | 3.77 K | 5.04 K | 1.34 K | 0.62 K | -0.90 K | 1.55 K | 0.73 K | Cc1cc(NC(=O)C2(C(=O)Nc3ccc(F)cc3)CC2)cc(-c2c[nH]c3ncnc(N4CCOCC4)c23)c1 [Compound 6]
5 | 0.70 K | -0.00698 K | 5.80 K | 1.96 K | 3.14 K | 1.46 K | -1.23 K | 2.36 K | -0.0334 K | Cc1cc(F)ccc1NC(=O)C1(C(=O)Nc2cccc(-c3c[nH]c4ncnc(N5CCOCC5)c34)c2)CC1 [Compound 24]
6 | 2.66 K | 0.68 K | 5.91 K | 4.30 K | 4.41 K | 3.41 K | -1.26 K | 3.04 K | 0.35 K | O=C(Nc1cccc(-c2c[nH]c3ncnc(N4CCOCC4)c23)c1)C1(C(=O)Nc2cccc3c2CCC3)CC1 [Compound 11]
7 | 0.65 K | -0.08 K | 3.98 K | 3.09 K | 0.55 K | 1.33 K | -1.10 K | 0.47 K | -0.0251 K | COc1ccc(NC(=O)C2(C(=O)Nc3cccc(-c4c[nH]c5ncnc(N6CCOCC6)c45)c3)CC2)cc1 [Compound 16]
8 | 0.91 K | 0.25 K | 6.42 K | 8.53 K | 4.61 K | 3.09 K | -1.17 K | 4.31 K | -0.19 K | COc1cc(NC(=O)C2(C(=O)Nc3cccc(-c4c[nH]c5ncnc(N6CCOCC6)c45)c3)CC2)ccc1F [Compound 21]
9 | 0.05 K | -1.15 K | 1.92 K | 3.48 K | 2.39 K | 3.90 K | 0.77 K | 0.76 K | -0.58 K | Cc1ccc(-n2nc(C(C)(C)C)cc2NC(=O)Nc2cccc(-c3c[nH]c4nc(Cl)nc(N5CCOCC5)c34)c2)cc1 [Compound 30]

Continued, compound first:

Row | SMILES | dTm [1] | dTm [2] | dTm [3] | dTm [4] | dTm [5] | dTm [6] | dTm [7] | dTm [8] | dTm [9]
10 | Cn1cc(-c2c[nH]c3ncnc(N4CCOCC4)c23)cc1C#N [PFE-360] | -0.08 K | 1.53 K | 1.90 K | 1.08 K | 0.37 K | -0.24 K | -1.84 K | -0.19 K | 0.08 K
11 | Cc1ccc(C(=O)Nc2ccc(CN3CCN(C)CC3)c(C(F)(F)F)c2)cc1C#Cc1c[nH]c2ncnc(N3CCOCC3)c12 [Compound 1] | 1.15 K | -0.17 K | 7.64 K | 3.91 K | 4.67 K | 3.12 K | -1.51 K | 1.52 K | 1.39 K
12 | O=C(Nc1ccc(F)cc1)C1(C(=O)Nc2cccc(-c3c[nH]c4ncnc(N5CCOCC5)c34)c2)CC1 [Compound 2] | 0.49 K | 2.27 K | 4.96 K | 7.92 K | 4.21 K | 2.59 K | -0.78 K | 2.06 K | -0.45 K
13 | O=C(Nc1cccc(-c2c[nH]c3ncnc(N4CCOCC4)c23)c1)C1(C(=O)Nc2ccc(F)c(Br)c2F)CC1 [Compound 26] | -0.13 K | 0.60 K | 5.24 K | 4.70 K | 3.31 K | 1.85 K | -0.44 K | 2.69 K | 1.13 K
14 | CCSc1nc(NC)c2c(-c3cccc(NC(=O)Nc4cc(C(C)(C)C)nn4-c4ccc(C)cc4)c3)c[nH]c2n1 [Compound 32] | 0.61 K | -0.14 K | 0.66 K | 6.49 K | 0.27 K | 9.64 K | 0.69 K | -0.13 K | 0.83 K
15 | CCc1ccc(NC(=O)C2(C(=O)Nc3cccc(-c4c[nH]c5ncnc(N6CCOCC6)c45)c3)CC2)cc1 [Compound 15] | 1.22 K | 0.76 K | 6.81 K | 4.76 K | 3.12 K | 2.19 K | -0.98 K | 1.40 K | 0.33 K
16 | C[C@@H]1CN(c2cc(-c3n[nH]c4ccc(OC5(C)CC5)cc34)ncn2)C[C@H](C)O1 [MLi2] | 0.28 K | 4.00 K | 0.87 K | 1.21 K | -0.41 K | -0.11 K | -0.93 K | -0.13 K | 0.19 K
